Ends that are not written are not given here.
Assays:
VEGFR-2 = tested on: VEGFR-2; set-up: method as in 2 sources, ref 30 = [30]; PMID 33209022; doi:10.2147/IJN.S270208; 30. Lu L. Chen H. Wang L. Zhao L. Cheng Y. Wang A. Wang F. Zhang X. A Dual Receptor Targeting- and BBB Penetrating- Peptide Functionalized Polyethyleneimine Nanocomplex for Secretory Endostatin Gene D ||| ref 19-22 = [19]; PMID 10747021; doi:10.1093/emboj/19.7.1525; 19. Binétruy-Tournaire R. Demangel C. Malavaud B. Vassy R. Rouyre S. Kraemer M. Plouët J. Derbin C. Perret G. Mazié J.C. Identification of a peptide blocking vascular endothelial growth factor (VEGF)- || [20]; PMID 16959272; doi:10.1016/j.lfs.2006.08.005; 20. Starzec A. Vassy R. Martin A. Lecouvey M. Di Benedetto M. Crépin M. Perret G.Y. Antiangiogenic and antitumor activities of peptide inhibiting the vascular endothelial growth factor binding to neur || [21]; PMID 17983687; doi:10.1016/j.peptides.2007.09.013; 21. Starzec A. Ladam P. Vassy R. Badache S. Bouchemal N. Navaza A. du Penhoat C.H. Perret G.Y. Structure-function analysis of the antiangiogenic ATWLPPR peptide inhibiting VEGF (165) binding to neurop || [22]; PMID 27693752; doi:10.1016/j.jconrel.2016.09.035; 22. Ying M. Shen Q. Zhan C. Wei X. Gao J. Xie C. Yao B. Lu W. A stabilized peptide ligand for multifunctional glioma targeted drug delivery J. Control. Release 2016 243 86 98 10.1016/j.jconrel.2016.09; conditions: cited from earlier work
Excerpt: (§1) ATWLPPR (AT7), which was identified by a mutated phage lib ... || Intracranial delivery of therapeutic agents is primarily hindered by the BBB [24]. The intercellular tight junction caused by the BBB restricts the passive diffusion of almost all large-molecule and more than 98% of small-molecule drugs from peripheral blood circulation to the brain tissue.

NRP-1 = tested on: NRP-1; set-up: method as in 2 sources, ref 30 = [30]; PMID 33209022; doi:10.2147/IJN.S270208; 30. Lu L. Chen H. Wang L. Zhao L. Cheng Y. Wang A. Wang F. Zhang X. A Dual Receptor Targeting- and BBB Penetrating- Peptide Functionalized Polyethyleneimine Nanocomplex for Secretory Endostatin Gene D ||| ref 19-22 = [19]; PMID 10747021; doi:10.1093/emboj/19.7.1525; 19. Binétruy-Tournaire R. Demangel C. Malavaud B. Vassy R. Rouyre S. Kraemer M. Plouët J. Derbin C. Perret G. Mazié J.C. Identification of a peptide blocking vascular endothelial growth factor (VEGF)- || [20]; PMID 16959272; doi:10.1016/j.lfs.2006.08.005; 20. Starzec A. Vassy R. Martin A. Lecouvey M. Di Benedetto M. Crépin M. Perret G.Y. Antiangiogenic and antitumor activities of peptide inhibiting the vascular endothelial growth factor binding to neur || [21]; PMID 17983687; doi:10.1016/j.peptides.2007.09.013; 21. Starzec A. Ladam P. Vassy R. Badache S. Bouchemal N. Navaza A. du Penhoat C.H. Perret G.Y. Structure-function analysis of the antiangiogenic ATWLPPR peptide inhibiting VEGF (165) binding to neurop || [22]; PMID 27693752; doi:10.1016/j.jconrel.2016.09.035; 22. Ying M. Shen Q. Zhan C. Wei X. Gao J. Xie C. Yao B. Lu W. A stabilized peptide ligand for multifunctional glioma targeted drug delivery J. Control. Release 2016 243 86 98 10.1016/j.jconrel.2016.09; conditions: cited from earlier work
Excerpt: as §1

red blood cells = assay: Hemolysis assay; conditions: 2.5–640 μmol/L; 37 °C, 1 h; 540 nm; mouse red blood cells; n = 3
Protocol: The fresh blood of mice was centrifuged at 2000 r/min for 10 min, and the upper layer of serum was discarded, then mixed with normal saline and centrifuged at 2000 r/min for 10 min, repeated three times, and the supernatant was removed to obtain the lower layer of red blood cells. Then, 1 mL of red blood cells was diluted to 50 mL with normal saline. […] The samples were incubated at 37 °C for 1 h, centrifuged at 2000 r/min for 10 min, and photographed. Light absorption of samples was measured at 540 nm on a microplate reader.
Cell hemolysis rate (%) = (OD experimental group − negative control group)/(OD positive control group − negative control group) × 100%.

AKT = assay: Western blot, phosphorylation of AKT; format: cell-based, human; conditions: 320 μmol/L, 90 min, VEGF-A165 30 ng/mL, HUVECs, vs control, AT7, TAT, n = 3
Protocol: For Western blotting analysis, HUVECs were seeded into 6-well culture plates at 3 × 10^5 cells/well and incubated overnight. […] Two control groups (F-12K medium in the absence or presence of VEGF-A165) were set. The cells were washed with cold PBS and lysed with lysis buffer (protease and phosphatase inhibitors) on the ice for 30 min, and then centrifuged at 4 °C for 15 min at 14,000 r/min. The supernatant was collected, and its total protein concentration was determined by the BCA protein assay kit. Equal amounts of proteins were separated by 10% SDS-PAGE gels and transferred to polyvinylidene difluoride (PVDF) membranes. After blocking with 5% non-fat milk for 1 h, the membranes were incubated with specific antibodies at 4 °C overnight. Then, the membranes were washed with TBST (Tris-Buffered Saline with 0.1% Tween 20) and incubated with horseradish peroxidase (HRP)-conjugated secondary antibody for 1 h at room temperature. The proteins on the membranes were visualized with enhanced chemiluminescence agents.

HUVECs = assay: Tube formation assay on Matrigel; format: cell-based, human; conditions: 160 μmol/L, VEGF-A165 30 ng/mL, 6 h, n = 3
Protocol: Matrigel was added to 96-well plates with 60 min of incubation at 37 °C for solidification. […] The tubular structures were observed under an inverted microscope and the total branching lengths were calculated by the ImageJ V 1.8.0 software.

[1] = Body weight and physiological status of glioma-bearing nude mice; format: in vivo; conditions: 20 mg/kg/day i.v., 11 days
Protocol: The orthotopic U87-mCherry-luc glioma-bearing nude mice were randomly assigned to 6 groups (n = 5) according to the bioluminescence intensity of glioma measured on day 4. […] The bioluminescence intensity was measured on days 4, 7, 11, and 14, respectively. Nude mice were weighed daily. On day 15, the mice were sacrificed, and the glioma-bearing brains were harvested. The brain tissues were fixed with 4.0% paraformaldehyde, embedded in paraffin, and cut into slices. The TUNEL staining and CD31 immunohistochemical staining were conducted according to standard histological procedures.

Compound | affinity to VEGFR-2 (VEGFR-2; compared with TAT or AT7 alone) | affinity to NRP-1 (NRP-1; compared with TAT or AT7 alone) | hemolysis (red blood cells) | hemolysis rate (red blood cells) | phosphorylation level of AKT (AKT) | formation of tubular structures (HUVECs) | total branch length of the tubular structure (HUVECs; vs AT7, TAT, and TAT+AT7 groups) | rate of weight loss [1] | toxicity and safety in nude mice ([1]; body weight and physiological status, 14th day) | binding to VEGFR-2 (VEGFR-2) | binding to NRP-1 (NRP-1)
CC(C)C[C@H](NC(=O)[C@H](Cc1c[nH]c2ccccc12)NC(=O)[C@@H](NC(=O)[C@H](C)NC(=O)[C@H](CS)NC(=O)[C@H](CCCNC(=N)N)NC(=O)[C@H](CCCNC(=N)N)NC(=O)[C@H](CCCNC(=N)N)NC(=O)[C@H](CCC(N)=O)NC(=O)[C@H](CCCNC(=N)N)NC(=O)[C@H](CCCNC(=N)N)NC(=O)[C@H](CCCCN)NC(=O)[C@H](CCCCN)NC(=O)[C@@H](N)CCCNC(=N)N)[C@@H](C)O)C(=O)N1CCC[C@H]1C(=O)N1CCC[C@H]1C(=O)N[C@@H](CCCNC(=N)N)C(=O)O [TAT-AT7] | higher affinity to VEGFR-2 and NRP-1 | higher affinity to VEGFR-2 and NRP-1 | did not cause obvious hemolysis | lower than 5% | significantly inhibited the phosphorylation level | significantly inhibit the formation of tubular structures in HUVECs | significantly reduced | slower than that in the normal saline group | less toxicity and better safety for nude mice | – | –
ATWLPPR [AT7, ATWLPPR] | – | – | – | – | – | – | – | – | – | able to bind to VEGFR-2 and NRP-1 | able to bind to VEGFR-2 and NRP-1
